From patent publication US20260217682A1, “STILBENE COMPOUND AND PREPARATION METHOD THEREFOR AND USE THEREOF” (THE HONG KONG UNIVERSITY OF SCIENCE AND TECHNOLOGY, priority 2022, published 2026)

Test system: human HaCaT cells
Assay: Cytotoxicity assay (MTT colorimetric assay)
Format: cell-based
Conditions: 0.3-100 μM, 48 hours of treatment
Experimental: HaCaT cells were inoculated at a density of 5.0×10^3 cells/mL in a 96-well culture plate, with 100 μL per well. […] After 48 hours of treatment, 10 μL of MTT solution was added to each well, and the cells were incubated at 37° C. for an additional 4 hours. The culture was then terminated, the supernatant was discarded, and 150 μL of DMSO was added to each well. The plate was shaken for 10 minutes for full dissolution. The absorbance (OD) of each well was measured at 490 nm using an ELISA reader. The wells without drug treatment served as controls, and cell viability was calculated using the formula: Cell viability

Oc1ccc(C=Cc2cc(O)cc(O)c2)cc1 [resveratrol]
cytotoxicity (cell viability): neither compound RE-1 nor resveratrol exhibited significant cytotoxicity
